{"source": "ChEMBL document CHEMBL1141129", "about": "“Glucosamine-glycerophospholipids that activate cell-matrix adhesion and migration” (2005)", "type_in_all_cases": "functional", "key": {"HaCaT [1]": {"system": "HaCaT", "assay": "Lethal dose for Proliferation of human HaCaT cells after 24 hr of treatment upon incubation for 6 h", "conditions": "read-out: LD50 (the source's name)"}, "HaCaT [2]": {"system": "HaCaT", "assay": "Lethal dose for Proliferation of human HaCaT cells after 24 hr of treatment upon incubation for 24 h", "conditions": "for CC50: read-out: LD50 (the source's name)"}, "MDCK": {"system": "MDCK", "assay": "Lethal dose for Proliferation of […] after 24 hr of treatment upon incubation for 6 h", "conditions": "Canis lupus familiaris, read-out: LD50 (the source's name)"}}}
{"smiles": "CCCCCCCCCCCCCCCCCCOC[C@H](COP(=O)([O-])OCC[N+](C)(C)C)O[C@@H]1O[C@H](CO)[C@@H](O)[C@H](O)[C@H]1O", "values": [{"measurement": "CC50", "setting": "HaCaT [1]", "value": 9, "unit": "µM"}]}
{"smiles": "CCCCCCCCCCCCCCCCCCOC[C@H](COP(=O)([O-])OCC[N+](C)(C)C)OC1OC(O)C(O)C(O)C1NC1C(=O)C(C)=C(C)C1=O", "note": "(stereo partly specified)", "values": [{"measurement": "CC50", "setting": "HaCaT [2]", "value": 5.5, "unit": "µM"}]}
{"smiles": "CCCCCCCCCCCCCCCCCCOC[C@H](COP(=O)([O-])OCC[N+](C)(C)C)OC1OC(O)C(O)C(O)C1N", "note": "(stereo partly specified)", "values": [{"measurement": "CC50", "setting": "HaCaT [2]", "value": 30, "unit": "µM"}]}
{"smiles": "CCCCCCCCCCCCCCCCCCOCC(COP(=O)([O-])OCC[N+](C)(C)C)OC", "note": "(stereo unspecified) [EDELFOSINE]", "values": [{"measurement": "CC50", "setting": "MDCK", "value": 90, "unit": "µM"}]}
{"smiles": "CCCCCCCCCCCCCCCCOP(=O)([O-])OCC[N+](C)(C)C", "note": "[MILTEFOSINE]", "values": [{"measurement": "LD10", "setting": "HaCaT [2]", "value": 20, "unit": "µmol/L"}, {"measurement": "CC50", "setting": "MDCK", "value": 200, "unit": "µM"}]}
